Laboratory results reported in patent US10479784B2, “Substituted pyrazin-2-amines as inhibitors of ATR kinase” (Vertex Pharmaceuticals Incorporated, priority 2008, dated 2019).

Molecular target: full-length ATR (Homo sapiens (Human), UniProt Q13535)
Test: ATR Inhibition Assay (radioactive-phosphate incorporation)
Format: biochemical
Conditions: read-out: ATR Ki
Summary of the method: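 Full-length human ATR (5 nM) was assayed at 25 °C in 50 mM Tris/HCl pH 7.5, 10 mM MgCl2, 1 mM DTT, with 10 μM [γ-33P]ATP and 800 μM peptide, after 10-min compound preincubation. Reactions were stopped after 24 h, captured on phosphocellulose and counted; Ki(app) came from non-linear regression of initial rates.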

Sequence of full-length ATR (Q13535 whole entry): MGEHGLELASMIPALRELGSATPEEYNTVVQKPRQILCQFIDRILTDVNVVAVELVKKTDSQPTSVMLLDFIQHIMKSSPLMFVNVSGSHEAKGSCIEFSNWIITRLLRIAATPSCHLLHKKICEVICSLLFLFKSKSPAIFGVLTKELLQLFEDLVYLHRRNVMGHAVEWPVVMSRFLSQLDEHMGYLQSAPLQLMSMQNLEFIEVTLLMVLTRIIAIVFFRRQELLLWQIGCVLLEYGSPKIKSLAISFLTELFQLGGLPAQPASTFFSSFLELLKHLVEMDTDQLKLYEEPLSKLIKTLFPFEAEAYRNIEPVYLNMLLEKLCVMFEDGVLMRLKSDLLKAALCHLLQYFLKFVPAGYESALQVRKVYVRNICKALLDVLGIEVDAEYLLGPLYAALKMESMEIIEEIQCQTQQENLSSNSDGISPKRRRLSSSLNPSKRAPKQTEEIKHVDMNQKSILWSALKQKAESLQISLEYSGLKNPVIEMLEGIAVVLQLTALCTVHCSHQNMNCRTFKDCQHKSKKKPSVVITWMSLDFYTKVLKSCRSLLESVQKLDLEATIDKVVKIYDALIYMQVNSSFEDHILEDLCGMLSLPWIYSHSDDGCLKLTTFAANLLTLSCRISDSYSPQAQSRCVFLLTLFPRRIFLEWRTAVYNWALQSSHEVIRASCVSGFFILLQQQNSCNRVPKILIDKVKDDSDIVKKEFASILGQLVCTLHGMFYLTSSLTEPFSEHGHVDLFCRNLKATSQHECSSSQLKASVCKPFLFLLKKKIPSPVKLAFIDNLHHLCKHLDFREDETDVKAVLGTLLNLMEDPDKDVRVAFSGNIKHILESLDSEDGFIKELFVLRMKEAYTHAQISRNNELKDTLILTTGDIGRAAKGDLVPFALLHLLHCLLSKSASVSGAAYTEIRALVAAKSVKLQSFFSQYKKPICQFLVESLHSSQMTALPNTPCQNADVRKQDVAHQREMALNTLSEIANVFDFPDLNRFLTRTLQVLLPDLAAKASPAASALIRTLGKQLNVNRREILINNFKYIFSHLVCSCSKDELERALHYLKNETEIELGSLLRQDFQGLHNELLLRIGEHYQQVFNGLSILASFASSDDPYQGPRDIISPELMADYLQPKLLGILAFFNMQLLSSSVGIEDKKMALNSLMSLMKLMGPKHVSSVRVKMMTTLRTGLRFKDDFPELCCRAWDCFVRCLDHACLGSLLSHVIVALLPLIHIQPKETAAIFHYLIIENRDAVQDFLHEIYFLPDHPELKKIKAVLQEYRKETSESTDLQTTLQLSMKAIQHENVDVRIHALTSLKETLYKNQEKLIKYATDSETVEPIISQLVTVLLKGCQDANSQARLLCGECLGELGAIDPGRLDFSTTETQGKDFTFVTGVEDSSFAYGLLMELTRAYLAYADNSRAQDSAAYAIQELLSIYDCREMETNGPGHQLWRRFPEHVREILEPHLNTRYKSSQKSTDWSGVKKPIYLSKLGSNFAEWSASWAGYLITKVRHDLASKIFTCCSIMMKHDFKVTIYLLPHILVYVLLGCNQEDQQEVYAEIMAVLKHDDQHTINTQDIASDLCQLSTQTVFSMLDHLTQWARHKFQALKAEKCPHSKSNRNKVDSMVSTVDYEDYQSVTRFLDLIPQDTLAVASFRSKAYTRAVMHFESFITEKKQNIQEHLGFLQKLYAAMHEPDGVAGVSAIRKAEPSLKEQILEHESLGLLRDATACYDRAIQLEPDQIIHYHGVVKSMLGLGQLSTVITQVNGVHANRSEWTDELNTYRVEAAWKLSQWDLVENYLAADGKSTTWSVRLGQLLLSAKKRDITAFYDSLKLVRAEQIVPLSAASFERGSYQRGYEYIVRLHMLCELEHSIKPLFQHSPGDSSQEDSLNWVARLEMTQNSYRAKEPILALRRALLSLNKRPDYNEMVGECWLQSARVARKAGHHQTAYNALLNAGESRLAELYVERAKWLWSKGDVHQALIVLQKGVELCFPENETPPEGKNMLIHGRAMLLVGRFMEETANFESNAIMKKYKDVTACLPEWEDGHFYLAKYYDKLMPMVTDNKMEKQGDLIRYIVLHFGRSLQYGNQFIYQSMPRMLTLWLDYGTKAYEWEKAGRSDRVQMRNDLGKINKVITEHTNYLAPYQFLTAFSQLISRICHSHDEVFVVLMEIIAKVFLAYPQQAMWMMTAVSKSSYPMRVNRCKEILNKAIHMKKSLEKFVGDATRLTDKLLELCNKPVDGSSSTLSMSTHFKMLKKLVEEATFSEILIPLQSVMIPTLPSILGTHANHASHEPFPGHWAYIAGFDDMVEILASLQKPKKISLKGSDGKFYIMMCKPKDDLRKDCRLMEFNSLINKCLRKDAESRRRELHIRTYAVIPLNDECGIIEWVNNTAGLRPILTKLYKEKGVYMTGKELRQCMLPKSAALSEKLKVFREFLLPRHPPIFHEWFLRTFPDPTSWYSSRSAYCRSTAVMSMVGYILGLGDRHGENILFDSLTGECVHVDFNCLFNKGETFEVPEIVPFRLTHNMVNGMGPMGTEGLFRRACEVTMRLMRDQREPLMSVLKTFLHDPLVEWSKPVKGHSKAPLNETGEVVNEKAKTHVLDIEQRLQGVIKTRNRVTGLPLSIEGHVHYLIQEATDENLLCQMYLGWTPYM

Compound | Ki
CNCc1ccc(-c2nnc(-c3nc(-c4ccc(C(=O)N(C)C)cc4)cnc3N)o2)cc1 [IA-281, 4-[5-amino-6-[5-[4-(methylaminomethyl)phenyl]-1,3,4-oxadiazol-2-yl]pyrazin-2-yl]-N,N-dimethyl-benzamide] | ≤ 0.01 µM
CC(N)c1cccc(-c2nnc(-c3nc(-c4ccc(S(=O)(=O)C(C)C)cc4)cnc3N)o2)c1 (stereo not shown) [IA-282, 3-[5-[3-(1-aminoethyl)phenyl]-1,3,4-oxadiazol-2-yl]-5-(4-isopropylsulfonylphenyl)pyrazin-2-amine] | ≤ 0.01 µM
Nc1ncc(-c2ccc(N3CCOCC3)nc2)nc1-c1nnc(-c2ccccc2)o1 [IA-283, 5-(6-morpholino-3-pyridyl)-3-(5-phenyl-1,3,4-oxadiazol-2-yl)pyrazin-2-amine] | 0.01 to 0.1 µM
CN(C)C(=O)c1ccc(-c2cnc(N)c(-c3nnc(-c4ccccc4OCCCO)o3)n2)cc1 [IA-284, 4-[5-amino-6-[5-[2-(3-hydroxypropoxy)phenyl]-1,3,4-oxadiazol-2-yl]pyrazin-2-yl]-N,N-dimethyl-benzamide] | ≤ 0.01 µM
CC(C)S(=O)(=O)c1ccc(-c2cnc(N)c(-c3nnc(-c4ccc(C5CNC5)cc4)o3)n2)cc1 [IA-285, 3-[5-[4-(azetidin-3-yl)phenyl]-1,3,4-oxadiazol-2-yl]-5-(4-isopropylsulfonylphenyl)pyrazin-2-amine] | ≤ 0.01 µM
CN(C)C(=O)c1ccc(-c2cnc(N)c(-c3nnc(-c4cccc([N+](=O)[O-])c4)o3)n2)cc1 [IA-286, 4-(5-amino-6-(5-(3-nitrophenyl)-1,3,4-oxadiazol-2-yl)pyrazin-2-yl)-N,N-dimethylbenzamide] | 0.1 to 5 µM
CN(C)C(=O)c1ccc(-c2cnc(N)c(-c3nnc(NC(=O)c4ccccc4)o3)n2)cc1 [IA-287, 4-[5-amino-6-(5-benzamido-1,3,4-oxadiazol-2-yl)pyrazin-2-yl]-N,N-dimethyl-benzamide] | 0.1 to 5 µM
CNCc1ccc(-c2nnc(-c3nc(-c4ccc(S(C)(=O)=O)cc4)cnc3N)o2)cc1 [IA-288, 3-[5-[4-(methylaminomethyl)phenyl]-1,3,4-oxadiazol-2-yl]-5-(4-methylsulfonylphenyl)pyrazin-2-amine] | ≤ 0.01 µM
CNCc1ccc(-c2nnc(-c3nc(-c4ccc(S(=O)(=O)CCN(C)C)cc4)cnc3N)o2)cc1 [IA-289, 5-[4-(2-dimethylaminoethylsulfonyl)phenyl]-3-[5-[4-(methylaminomethyl)phenyl]-1,3,4-oxadiazol-2-yl]pyrazin-2-amine] | ≤ 0.01 µM
CNCc1ccc(-c2nnc(-c3nc(-c4ccc(S(=O)(=O)C(C)C)cc4F)cnc3N)o2)cc1 [IA-292, 5-(2-fluoro-4-isopropylsulfonyl-phenyl)-3-[5-[4-(methylaminomethyl)phenyl]-1,3,4-oxadiazol-2-yl]pyrazin-2-amine] | ≤ 0.01 µM
CNCc1ccc(-c2nnc(-c3nc(-c4ccc(S(=O)(=O)C(C)C)cc4C)cnc3N)o2)cc1 [IA-293, 5-(4-isopropylsulfonyl-2-methyl-phenyl)-3-[5-[4-(methylaminomethyl)phenyl]-1,3,4-oxadiazol-2-yl]pyrazin-2-amine] | ≤ 0.01 µM
CNCc1ccc(-c2nnc(-c3nc(-c4ccc(S(=O)(=O)C(C)C)c(C#N)c4)cnc3N)o2)cc1 [IA-295, 5-[5-amino-6-[5-[4-(methylaminomethyl)phenyl]-1,3,4-oxadiazol-2-yl]pyrazin-2-yl]-2-isopropylsulfonyl-benzonitrile] | ≤ 0.01 µM
CNCc1ccc(-c2nnc(-c3nc(-c4ccc(S(=O)(=O)N(C)C)cc4)cnc3N)o2)cc1 [IA-296, 4-[5-amino-6-[5-[4-(methylaminomethyl)phenyl]-1,3,4-oxadiazol-2-yl]pyrazin-2-yl]-N,N-dimethyl-benzenesulfonamide] | ≤ 0.01 µM
CNCc1ccc(-c2nnc(-c3nc(-c4ccc(S(=O)(=O)N5CCC5)cc4)cnc3N)o2)cc1 [IA-297, 5-[4-(azetidin-1-ylsulfonyl)phenyl]-3-[5-[4-(methylaminomethyl)phenyl]-1,3,4-oxadiazol-2-yl]pyrazin-2-amine] | ≤ 0.01 µM
CNCc1ccc(-c2nnc(-c3nc(-c4ccc(S(=O)(=O)C(C)C)cn4)cnc3N)o2)cc1 [IA-300, 5-(5-isopropylsulfonyl-2-pyridyl)-3-[5-[4-(methylaminomethyl)phenyl]-1,3,4-oxadiazol-2-yl]pyrazin-2-amine] | ≤ 0.01 µM
CNCc1ccc(-c2nnc(-c3nc(-c4ccc(S(=O)(=O)CCCO)cc4)cnc3N)o2)cc1 [IA-301, 3-[4-[5-amino-6-[5-[4-(methylaminomethyl)phenyl]-1,3,4-oxadiazol-2-yl]pyrazin-2-yl]phenyl]sulfonylpropan-1-ol] | ≤ 0.01 µM
CNCc1ccc(-c2nnc(-c3nc(-c4ccc(S(=O)(=O)C5CCOC5)cc4)cnc3N)o2)cc1 (stereo not shown) [IA-302, 3-[5-[4-(methylaminomethyl)phenyl]-1,3,4-oxadiazol-2-yl]-5-(4-tetrahydrofuran-3-ylsulfonylphenyl)pyrazin-2-amine] | ≤ 0.01 µM
CNCc1ccc(-c2nnc(-c3nc(-c4ccc(S(=O)(=O)C(C)C)nc4)cnc3N)o2)cc1 [IA-303, 5-(6-isopropylsulfonyl-3-pyridyl)-3-[5-[4-(methylaminomethyl)phenyl]-1,3,4-oxadiazol-2-yl]pyrazin-2-amine] | ≤ 0.01 µM
CNCc1ccc(-c2nnc(-c3nc(-c4ccc(S(=O)(=O)NCCO)cc4)cnc3N)o2)cc1 [IA-304, 4-[5-amino-6-[5-[4-(methylaminomethyl)phenyl]-1,3,4-oxadiazol-2-yl]pyrazin-2-yl]-N-(2-hydroxyethyl)benzenesulfonamide] | ≤ 0.01 µM
CNCc1ccc(-c2nnc(-c3nc(-c4ccc(S(=O)(=O)C(C)C)c(Cl)c4)cnc3N)o2)cc1 [IA-305, 5-(3-chloro-4-isopropylsulfonyl-phenyl)-3-[5-[4-(methylaminomethyl)phenyl]-1,3,4-oxadiazol-2-yl]pyrazin-2-amine] | ≤ 0.01 µM
CNCc1ccc(-c2nnc(-c3nc(-c4ccc(S(=O)(=O)C(C)C)cc4)cnc3N)o2)c(Cl)c1 [IA-306, 3-[5-[2-chloro-4-(methylaminomethyl)phenyl]-1,3,4-oxadiazol-2-yl]-5-(4-isopropylsulfonylphenyl)pyrazin-2-amine] | ≤ 0.01 µM

Second part, the molecule after the results:

Ki | Compound
≤ 0.01 µM | CCS(=O)(=O)c1ccc(-c2cnc(N)c(-c3nnc(-c4ccc(CNC)cc4)o3)n2)cc1 [IA-307, 5-(4-(ethylsulfonyl)phenyl)-3-(5-(4-((methylamino)methyl)phenyl)-1,3,4-oxadiazol-2-yl)pyrazin-2-amine]
≤ 0.01 µM | CNCc1ccc(-c2nnc(-c3nc(-c4ccc(S(=O)(=O)C5COC5)cc4)cnc3N)o2)cc1 [IA-308, 3-[5-[4-(methylaminomethyl)phenyl]-1,3,4-oxadiazol-2-yl]-5-[4-(oxetan-3-ylsulfonyl)phenyl]pyrazin-2-amine]
≤ 0.01 µM | CNCc1ccc(-c2nnc(-c3nc(-c4ccc(S(=O)(=O)C(C)C)cc4)cnc3N)o2)cc1Cl [IA-309, 3-[5-[3-chloro-4-(methylaminomethyl)phenyl]-1,3,4-oxadiazol-2-yl]-5-(4-isopropylsulfonylphenyl)pyrazin-2-amine]
≤ 0.01 µM | CCCS(=O)(=O)c1ccc(-c2cnc(N)c(-c3nnc(-c4ccc(CNC)cc4)o3)n2)cc1 [IA-310, 3-[5-[4-(methylaminomethyl)phenyl]-1,3,4-oxadiazol-2-yl]-5-(4-propylsulfonylphenyl)pyrazin-2-amine]
≤ 0.01 µM | CC(C)S(=O)(=O)c1ccc(-c2cnc(N)c(-c3nnc(-c4ccc(C(C)(C)N)cc4)o3)n2)cc1 [IA-311, 3-[5-[4-(1-amino-1-methyl-ethyl)phenyl]-1,3,4-oxadiazol-2-yl]-5-(4-isopropylsulfonylphenyl)pyrazin-2-amine]
≤ 0.01 µM | CNCc1ccc(-c2nnc(-c3nc(-c4ccc(S(=O)(=O)C(C)C)c(C)c4)cnc3N)o2)cc1 [IA-312, 5-(4-isopropylsulfonyl-3-methyl-phenyl)-3-[5-[4-(methylaminomethyl)phenyl]-1,3,4-oxadiazol-2-yl]pyrazin-2-amine]
≤ 0.01 µM | CCC(C)S(=O)(=O)c1ccc(-c2cnc(N)c(-c3nnc(-c4ccc(CNC)cc4)o3)n2)cc1 (stereo not shown) [IA-313, 3-[5-[4-(methylaminomethyl)phenyl]-1,3,4-oxadiazol-2-yl]-5-(4-sec-butylsulfonylphenyl)pyrazin-2-amine]
≤ 0.01 µM | CNCc1ccc(-c2nnc(-c3nc(-c4ccc(S(=O)(=O)C(C)C)c(F)c4)cnc3N)o2)cc1 [IA-314, 5-(3-fluoro-4-isopropylsulfonyl-phenyl)-3-[5-[4-(methylaminomethyl)phenyl]-1,3,4-oxadiazol-2-yl]pyrazin-2-amine]
≤ 0.01 µM | CNCc1ccc(-c2nnc(-c3nc(-c4ccc(S(=O)(=O)C(C)C)cc4Cl)cnc3N)o2)cc1 [IA-316, 5-(2-chloro-4-isopropylsulfonyl-phenyl)-3-[5-[4-(methylaminomethyl)phenyl]-1,3,4-oxadiazol-2-yl]pyrazin-2-amine]
0.1 to 5 µM | CC(C)S(=O)(=O)c1ccc(-c2cnc(N)c(-c3nnc(NC4CCNCC4)o3)n2)cc1 [IA-318, 5-[3-amino-6-(4-isopropylsulfonylphenyl)pyrazin-2-yl]-N-(4-piperidyl)-1,3,4-oxadiazol-2-amine]
≤ 0.01 µM | CC(C)S(=O)(=O)c1ccc(-c2cnc(N)c(-c3nnc(-c4ccc(CNC5COC5)cc4F)o3)n2)cc1 [IA-319, 3-[5-[2-fluoro-4-[(oxetan-3-ylamino)methyl]phenyl]-1,3,4-oxadiazol-2-yl]-5-(4-isopropylsulfonylphenyl)pyrazin-2-amine]
≤ 0.01 µM | CNCc1ccc(-c2nnc(-c3nc(-c4ccc(S(=O)(=O)C(C)C)cc4)cnc3N)o2)cc1O [IA-320, 5-[5-[3-amino-6-(4-isopropylsulfonylphenyl)pyrazin-2-yl]-1,3,4-oxadiazol-2-yl]-2-(methylaminomethyl)phenol]
≤ 0.01 µM | CNCc1ccc(-c2nnc(-c3nc(-c4ccc(S(=O)(=O)C(C)C)c(F)c4)cnc3N)o2)c(F)c1 [IA-321, 5-(3-fluoro-4-isopropylsulfonyl-phenyl)-3-[5-[2-fluoro-4-(methylaminomethyl)phenyl]-1,3,4-oxadiazol-2-yl]pyrazin-2-amine]
